Target: human autotaxin (ATX) (Homo sapiens (Human), UniProt Q13822)
Assay: Human Autotaxin Assay
Type: biochemical
Conditions: concentrated conditioned media from Hep3B cells; LPC substrate, choline release
Description: ATX activity is assayed in concentrated conditioned media from Hep3B human hepatocellular carcinoma cells by measuring the amount of choline released from the substrate, lysophosphatidylcholine (LPC) as it is cleaved to LPA. Conditioned media is collected from confluent Hep3B cells and concentrated 20-fold using Centriprep-30 filter devices (Millipore). To assay for autotaxin inhibition, 10-20 μL of the concentrated conditioned media is incubated with 2.5 μL of a test compound in DMSO and 72.5-82.5 μL lyso-PLD buffer (100 mM Tris pH 9, 500 mM NaCl, 5 mM MgCl2, 5 mM CaCl2, 0.05% Triton X-100 in the presence or absence of 0.2% fatty-acid-free human serum albumin) for 15 min at 37° C. After the 15 min incubation, 5 uL of 2 mM LPC (14:0; Avanti Polar Lipids Cat#855575C) diluted in lyso-PLD buffer is added for a final concentration of 100 uM and the incubation continues for 1.5-3 hours at 37° C.

SMILES | IC50
Cc1c(Sc2cccc(C(=O)O)c2)c2ccc(Cl)c(F)c2n1CCC(=O)N1CCCC1 [Compound 1-25, 3-((6-Chloro-7-fluoro-2-methyl-1-(3-oxo-3-(pyrrolidin-1-yl)propyl)-1H-indol-3-yl)thio)benzoic acid] | ≤ 500 nM
Cc1c(Sc2cccc(C(=O)O)c2F)c2ccc(Cl)c(F)c2n1CC(=O)N1CCC(O)(c2ccccc2)C1 (stereo not drawn) [Compound 2-68, 3-((6-Chloro-7-fluoro-1-(2-(3-hydroxy-3-phenylpyrrolidin-1-yl)-2-oxoethyl)-2-methyl-1H-indol-3-yl)thio)-2-fluorobenzoic acid] | ≤ 500 nM
Cc1c(Sc2cccc(C(=O)O)c2)c2ccc(Cl)c(F)c2n1CC(=O)NC1CCCCC1 [Compound 1-2, 3-((6-Chloro-1-(2-(cyclohexylamino)-2-oxoethyl)-7-fluoro-2-methyl-1H-indol-3-yl)thio)benzoic acid] | 500 to 3000 nM
Cc1c(Sc2cccc(C(=O)O)c2)c2ccc(Cl)c(F)c2n1CC(=O)N1CCCC1=O [Compound 1-59, 3-((6-Chloro-7-fluoro-2-methyl-1-(2-oxo-2-(2-oxopyrrolidin-1-yl)ethyl)-1H-indol-3-yl)thio)benzoic acid] | 500 to 3000 nM
Cc1c(Sc2cccc(C(=O)O)c2F)c2ccc(Cl)c(F)c2n1CC(=O)N1C[C@H](O)[C@@H](N(C)C)C1 [Compound 2-69, 3-((6-Chloro-1-(2-((3S,4S)-3-(dimethylamino)-4-hydroxypyrrolidin-1-yl)-2-oxoethyl)-7-fluoro-2-methyl-1H-indol-3-yl)thio)-2-fluorobenzoic acid] | ≤ 500 nM
Cc1c(Sc2cccc(C(=O)O)c2)c2ccc(Cl)c(F)c2n1CC(=O)N1CCC(C)(C)CC1 [Compound 1-44, 3-((6-Chloro-1-(2-(4,4-dimethylpiperidin-1-yl)-2-oxoethyl)-7-fluoro-2-methyl-1H-indol-3-yl)thio)benzoic acid] | ≤ 500 nM
Cc1c(Sc2cccc(C(=O)O)c2F)c2ccc(Cl)c(F)c2n1CC(=O)N1CC2(CC2)c2ccccc21 [Compound 2-55, 3-((6-Chloro-7-fluoro-2-methyl-1-(2-oxo-2-(spiro[cyclopropane-1,3′-indolin]-1′-yl)ethyl)-1H-indol-3-yl)thio)-2-fluorobenzoic acid] | ≤ 500 nM
Cc1c(Sc2cccc(C(=O)O)c2F)c2ccc(Cl)c(F)c2n1CC(=O)N1CCC2(C1)OCCO2 [Compound 2-72, 3-((6-Chloro-7-fluoro-2-methyl-1-(2-oxo-2-(1,4-dioxa-7-azaspiro[4.4]nonan-7-yl)ethyl)-1H-indol-3-yl)thio)-2-fluorobenzoic acid] | ≤ 500 nM
Cc1c(Sc2cccc(C(=O)O)c2)c2ccc(Cl)c(F)c2n1CC(=O)N1CC(N2CCC(F)(F)C2)C1 [Compound 1-42, 3-((6-Chloro-1-(2-(3-(3,3-difluoropyrrolidin-1-yl)azetidin-1-yl)-2-oxoethyl)-7-fluoro-2-methyl-1H-indol-3-yl)thio)benzoic acid] | ≤ 500 nM
Cc1c(Sc2cccc(C(=O)O)c2)c2ccc(Cl)c(F)c2n1CC(=O)N1CCC2(CCOCC2)C1 [Compound 1-46, 3-((6-Chloro-7-fluoro-2-methyl-1-(2-oxo-2-(8-oxa-2-azaspiro[4.5]decan-2-yl)ethyl)-1H-indol-3-yl)thio)benzoic acid] | ≤ 500 nM
Cc1c(Sc2cccc(C(=O)O)c2)c2ccc(Cl)c(F)c2n1CC(=O)N1CCC(OCc2ccc(F)cc2)C1 (stereo not drawn) [Compound 1-22, 3-((6-Chloro-7-fluoro-1-(2-(3-((4-fluorobenzyl)oxy)pyrrolidin-1-yl)-2-oxoethyl)-2-methyl-1H-indol-3-yl)thio)benzoic acid] | ≤ 500 nM
Cc1c(Sc2cccc(C(=O)O)c2)c2ccc(Cl)c(F)c2n1CC(=O)N1CC2(CCC2)c2c(F)cccc21 [Compound 1-33, 3-((6-Chloro-7-fluoro-1-(2-(4′-fluorospiro[cyclobutane-1,3′-indolin]-1′-yl)-2-oxoethyl)-2-methyl-1H-indol-3-yl)thio)benzoic acid] | ≤ 500 nM
Cc1c(Sc2cccc(C(=O)O)c2)c2ccc(Cl)c(F)c2n1CC(=O)N1CC2(CC2)c2ccccc21 [Compound 1-31, 3-((6-Chloro-7-fluoro-2-methyl-1-(2-oxo-2-(spiro[cyclopropane-1,3′-indolin]-1′-yl)ethyl)-1H-indol-3-yl)thio)benzoic acid] | ≤ 500 nM
Cc1c(Sc2cccc(C(=O)O)c2)c2ccc(Cl)c(F)c2n1CC(=O)N1CCC2(CCN(Cc3ccccc3)CC2)C1 [Compound 1-67, 3-((1-(2-(8-Benzyl-2,8-diazaspiro[4.5]decan-2-yl)-2-oxoethyl)-6-chloro-7-fluoro-2-methyl-1H-indol-3-yl)thio)benzoic acid] | 500 to 3000 nM
Cc1c(Sc2cccc(C(=O)O)c2)c2ccc(Cl)c(F)c2n1CC(=O)N1CCc2ccc(Cl)cc21 [Compound 1-73, 3-((6-Chloro-1-(2-(6-chloroindolin-1-yl)-2-oxoethyl)-7-fluoro-2-methyl-1H-indol-3-yl)thio)benzoic acid] | ≤ 500 nM
O=C(O)c1cccc(Sc2c(Cl)n(CCN3CC4(CC4)c4ccccc43)c3c(F)c(Cl)ccc23)c1F [Compound 5-2, Sodium 3-((2,6-dichloro-7-fluoro-1-(2-(spiro[cyclopropane-1,3′-indolin]-1′-yl)ethyl)-1H-indol-3-yl)thio)-2-fluorobenzoate] | ≤ 500 nM
Cc1c(Sc2cccc(C(=O)O)n2)c2ccc(Cl)c(F)c2n1CC(=O)N1CC2(CC2)c2ccccc21 [Compound 2-54, 6-((6-Chloro-7-fluoro-2-methyl-1-(2-oxo-2-(spiro[cyclopropane-1,3′-indolin]-1′-yl)ethyl)-1H-indol-3-yl)thio)picolinic acid] | ≤ 500 nM
Cc1c(Sc2cccc(C(=O)O)c2)c2ccc(Cl)c(F)c2n1CC(=O)N1CCC(CCc2ccccc2)C1 (stereo not drawn) [Compound 1-76, 3-((6-Chloro-7-fluoro-2-methyl-1-(2-oxo-2-(3-phenethylpyrrolidin-1-yl)ethyl)-1H-indol-3-yl)thio)benzoic acid] | 500 to 3000 nM
Cc1c(Sc2cccc(C(=O)O)c2)c2ccc(Cl)c(F)c2n1CC(=O)N(C)C [Compound 1-7, 3-((6-Chloro-1-(2-(dimethylamino)-2-oxoethyl)-7-fluoro-2-methyl-1H-indol-3-yl)thio)benzoic acid] | ≤ 500 nM
CON(C)C(=O)Cn1c(C2CC2)c(Sc2cccc(C(=O)O)c2F)c2ccc(Cl)c(F)c21 [Compound 5-7, Sodium 3-((6-chloro-2-cyclopropyl-7-fluoro-1-(2-(methoxy(methyl)amino)-2-oxoethyl)-1H-indol-3-yl)thio)-2-fluorobenzoate] | 500 to 3000 nM
Cc1c(Sc2cccc(C(=O)O)c2)c2ccc(Cl)c(F)c2n1CC(=O)N1CCc2cc(Cl)ccc21 [Compound 1-71, 3-((6-Chloro-1-(2-(5-chloroindolin-1-yl)-2-oxoethyl)-7-fluoro-2-methyl-1H-indol-3-yl)thio)benzoic acid] | ≤ 500 nM
Cc1c(Sc2cccc(C(=O)O)c2)c2ccc(Cl)c(F)c2n1CC(=O)N1CCC(c2cnn(C)c2)C1 (stereo not drawn) [Compound 1-96, 3-((6-Chloro-7-fluoro-2-methyl-1-(2-(3-(1-methyl-1H-pyrazol-4-yl)pyrrolidin-1-yl)-2-oxoethyl)-1H-indol-3-yl)thio)benzoic acid] | ≤ 500 nM
Cc1c(Sc2cccc(C(=O)O)c2)c2ccc(Cl)c(F)c2n1CC(=O)Nc1cc(Cl)cc(Cl)c1 [Compound 1-4, 3-((6-Chloro-1-(2-((3,5-dichlorophenyl)amino)-2-oxoethyl)-7-fluoro-2-methyl-1H-indol-3-yl)thio)benzoic acid] | > 3000 nM
Cc1c(Sc2cccc(C(=O)O)c2)c2ccc(Cl)c(F)c2n1CC(=O)N1CCc2ccccc21 [Compound 1-14, 3-((6-Chloro-7-fluoro-1-(2-(indolin-1-yl)-2-oxoethyl)-2-methyl-1H-indol-3-yl)thio)benzoic acid] | ≤ 500 nM
Cc1c(Sc2cccc(C(=O)O)c2)c2ccc(Cl)c(F)c2n1CC(=O)N1CCC(Cc2ccc(F)cc2)CC1 [Compound 1-60, 3-((6-Chloro-7-fluoro-1-(2-(4-(4-fluorobenzyl)piperidin-1-yl)-2-oxoethyl)-2-methyl-1H-indol-3-yl)thio)benzoic acid] | 500 to 3000 nM
Cc1c(Sc2cccc(C(=O)O)c2)c2ccc(Cl)c(F)c2n1CC(=O)N1CCC2(CC1)CC(=O)N2 [Compound 1-41, 3-((6-Chloro-7-fluoro-2-methyl-1-(2-oxo-2-(2-oxo-1,7-diazaspiro[3.5]nonan-7-yl)ethyl)-1H-indol-3-yl)thio)benzoic acid] | ≤ 500 nM
Cc1c(Sc2cccc(C(=O)O)c2F)c2ccc(Cl)c(F)c2n1CCN1CCc2ccccc21 [Compound 2-73, Sodium 3-((6-chloro-7-fluoro-1-(2-(indolin-1-yl)ethyl)-2-methyl-1H-indol-3-yl)thio)-2-fluorobenzoate] | ≤ 500 nM
Cc1c(Sc2cccc(C(=O)O)c2)c2ccc(Cl)c(F)c2n1CC(=O)N1CCCc2ccccc21 [Compound 1-36, 3-((6-Chloro-1-(2-(3,4-dihydroquinolin-1(2H)-yl)-2-oxoethyl)-7-fluoro-2-methyl-1H-indol-3-yl)thio)benzoic acid] | ≤ 500 nM
Cc1c(Sc2cccc(C(=O)O)c2)c2ccc(Cl)c(F)c2n1CC(=O)Nc1ccccc1 [Compound 1-3, 3-((6-Chloro-7-fluoro-2-methyl-1-(2-oxo-2-(phenylamino)ethyl)-1H-indol-3-yl)thio)benzoic acid] | 500 to 3000 nM
Cc1c(Sc2cccc(C(=O)O)n2)c2ccc(Cl)c(F)c2n1CC(=O)N1CCc2ccccc21 [Compound 2-3] | ≤ 500 nM
